Assay results published in BindingDB's records for doi:10.7270/Q22R3Q30 (Nmmlsc, 2009).

Target: Cell division control protein 42 homolog (Homo sapiens, UniProt P60953)
Assay: Cdc42 activated mutant GTP-binding inhibitors, SAR follow-up, biochemical, bead-based multiplex flow cytometry, additional SAR set (AID 2021)

Sequence of Cell division control protein 42 homolog (P60953 whole entry): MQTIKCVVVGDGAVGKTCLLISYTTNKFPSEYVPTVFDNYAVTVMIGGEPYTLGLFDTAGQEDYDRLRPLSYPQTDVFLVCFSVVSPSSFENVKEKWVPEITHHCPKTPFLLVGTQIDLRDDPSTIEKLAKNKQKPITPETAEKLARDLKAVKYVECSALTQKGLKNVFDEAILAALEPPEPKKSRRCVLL

Row | Ki [µM] | SMILES
1 | 0.81 | O=C1NC(=O)/C(=C2/C(=O)Nc3ccccc32)N1
2 | 8.52 | O=C1N=c2c(Br)cccc2=C1c1[nH]c2ccccc2c1NO [7-bromanyl-3-[3-(oxidanylamino)-1H-indol-2-yl]indol-2-one]
